Species: Homo sapiens
Experiment: Selectivity ratio of Ki for human carbonic anhydrase 2 to Ki for human carbonic anhydrase 9

Row | Compound | Ratio Ki
1 | NS(=O)(=O)c1ccc2c(c1)CCCN2 | 1.6
2 | CC(F)(Cl)CNS(=O)(=O)c1ccc(N)cc1 (configuration not stated) | 0.6
3 | CC(=O)Nc1ccc(S(=O)(=O)NCC(C)F)cc1 (configuration not stated) | 1
4 | CCCNS(=O)(=O)c1ccc(N)cc1 | 1.7
5 | Nc1ccc(S(=O)(=O)NCCC(F)F)cc1 | 2
6 | CC(F)(F)CNS(=O)(=O)c1ccc(N)cc1 | 1.8
7 | CC(C)(F)CNS(=O)(=O)c1ccc(N)cc1 | 0.9
8 | C=CCNc1ccc(S(N)(=O)=O)cc1 | 1.7
9 | C=C(Cl)CN(CC(=C)Cl)S(=O)(=O)c1ccc(N)cc1 | 68.2
10 | Nc1ccc(S(=O)(=O)NCCC(F)Cl)cc1 (configuration not stated) | 0.3
11 | C=C(Cl)CNS(=O)(=O)c1ccc(N)cc1 | 57.5
12 | C=C(C)CNS(=O)(=O)c1ccc(N)cc1 | 1.4
13 | NS(=O)(=O)c1ccc(Nc2nc(Cl)nc(NCCO)n2)cc1 | 23.1
14 | CC1CN(C)S(=O)(=O)c2ccc(N)cc21 (configuration not stated) | 3.2
15 | CC(F)CNc1ccc(S(N)(=O)=O)cc1 (configuration not stated) | 1.3

Species: Homo sapiens
Experiment: Selectivity ratio of Ki for human carbonic anhydrase 1 to Ki for human carbonic anhydrase 9

Row | Compound | Ratio Ki
16 | NS(=O)(=O)c1ccc2c(c1)CCCN2 | 3.8
17 | CC(F)(Cl)CNS(=O)(=O)c1ccc(N)cc1 (configuration not stated) | 2.1
18 | CC(=O)Nc1ccc(S(=O)(=O)NCC(C)F)cc1 (configuration not stated) | 1.1
19 | CCCNS(=O)(=O)c1ccc(N)cc1 | 2.5
20 | Nc1ccc(S(=O)(=O)NCCC(F)F)cc1 | 2
21 | CC(F)(F)CNS(=O)(=O)c1ccc(N)cc1 | 3.2
22 | CC(C)(F)CNS(=O)(=O)c1ccc(N)cc1 | 2.1
23 | C=CCNc1ccc(S(N)(=O)=O)cc1 | 1.5
24 | C=C(Cl)CN(CC(=C)Cl)S(=O)(=O)c1ccc(N)cc1 | 92.8
25 | Nc1ccc(S(=O)(=O)NCCC(F)Cl)cc1 (configuration not stated) | 2.7
26 | C=C(Cl)CNS(=O)(=O)c1ccc(N)cc1 | 62
27 | C=C(C)CNS(=O)(=O)c1ccc(N)cc1 | 2.1
28 | NS(=O)(=O)c1ccc(Nc2nc(Cl)nc(NCCO)n2)cc1 | 1460
29 | CC1CN(C)S(=O)(=O)c2ccc(N)cc21 (configuration not stated) | 4.7
30 | CC(F)CNc1ccc(S(N)(=O)=O)cc1 (configuration not stated) | 4

Each compound was assayed against Carbonic anhydrase 1 (Homo sapiens, UniProt P00915) (assay: Inhibition of human recombinant carbonic anhydrase 1 preincubated for 15 mins by CO2 hydration stopped-flow assay).
Chain of Carbonic anhydrase 1 (P00915 whole entry): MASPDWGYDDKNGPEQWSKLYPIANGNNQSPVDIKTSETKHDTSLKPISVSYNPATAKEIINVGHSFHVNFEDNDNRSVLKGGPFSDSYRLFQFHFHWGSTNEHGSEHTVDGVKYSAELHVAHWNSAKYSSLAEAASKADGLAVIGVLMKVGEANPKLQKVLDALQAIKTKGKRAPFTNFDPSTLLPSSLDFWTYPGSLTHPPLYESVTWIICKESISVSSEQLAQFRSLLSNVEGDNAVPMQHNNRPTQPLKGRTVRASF

Row | Compound | Ki
31 | NS(=O)(=O)c1ccc2c(c1)CCCN2 | 0.192 µM
32 | CC(F)(Cl)CNS(=O)(=O)c1ccc(N)cc1 (configuration not stated) | 5.18 µM
33 | CC(=O)Nc1ccc(S(=O)(=O)NCC(C)F)cc1 (configuration not stated) | 4.8 µM
34 | CCCNS(=O)(=O)c1ccc(N)cc1 | 5.14 µM
35 | Nc1ccc(S(=O)(=O)NCCC(F)F)cc1 | 4.22 µM
36 | CC(F)(F)CNS(=O)(=O)c1ccc(N)cc1 | 0.151 µM
37 | CC(C)(F)CNS(=O)(=O)c1ccc(N)cc1 | 0.174 µM
38 | C=CCNc1ccc(S(N)(=O)=O)cc1 | 2.08 µM
39 | C=C(Cl)CN(CC(=C)Cl)S(=O)(=O)c1ccc(N)cc1 | 6.8 µM
40 | Nc1ccc(S(=O)(=O)NCCC(F)Cl)cc1 (configuration not stated) | 6.76 µM
41 | C=C(Cl)CNS(=O)(=O)c1ccc(N)cc1 | 5.63 µM
42 | C=C(C)CNS(=O)(=O)c1ccc(N)cc1 | 7.14 µM
43 | CC1CN(C)S(=O)(=O)c2ccc(N)cc21 (configuration not stated) | 0.637 µM
44 | CC(F)CNc1ccc(S(N)(=O)=O)cc1 (configuration not stated) | 0.175 µM
45 | Cc1ccc(S(=O)(=O)Nc2ccccc2)cc1 | 0.419 µM

These compounds were tested against Carbonic anhydrase 9 (Homo sapiens, UniProt Q16790) (assay: Inhibition of human catalytic domain of carbonic anhydrase 9 preincubated for 15 mins by CO2 hydration stopped-flow assay).

Row | Compound | Ki
46 | NS(=O)(=O)c1ccc2c(c1)CCCN2 | 0.0505 µM
47 | CC(F)(Cl)CNS(=O)(=O)c1ccc(N)cc1 (configuration not stated) | 2.47 µM
48 | CC(=O)Nc1ccc(S(=O)(=O)NCC(C)F)cc1 (configuration not stated) | 4.4 µM
49 | CCCNS(=O)(=O)c1ccc(N)cc1 | 2.08 µM
50 | Nc1ccc(S(=O)(=O)NCCC(F)F)cc1 | 2.12 µM
51 | CC(F)(F)CNS(=O)(=O)c1ccc(N)cc1 | 0.047 µM
52 | C=CCNc1ccc(S(N)(=O)=O)cc1 | 1.4 µM
53 | C=C(Cl)CN(CC(=C)Cl)S(=O)(=O)c1ccc(N)cc1 | 0.0732 µM
54 | Nc1ccc(S(=O)(=O)NCCC(F)Cl)cc1 (configuration not stated) | 2.47 µM
55 | C=C(Cl)CNS(=O)(=O)c1ccc(N)cc1 | 0.09 µM
56 | C=C(C)CNS(=O)(=O)c1ccc(N)cc1 | 3.46 µM
57 | CC1CN(C)S(=O)(=O)c2ccc(N)cc21 (configuration not stated) | 0.136 µM
58 | CC(F)CNc1ccc(S(N)(=O)=O)cc1 (configuration not stated) | 0.0435 µM

These compounds were tested against Carbonic anhydrase 12 (Homo sapiens, UniProt O43570) (assay: Inhibition of human catalytic domain of carbonic anhydrase 12 preincubated for 15 mins by CO2 hydration stopped-flow assay).
Chain of Carbonic anhydrase 12 (O43570 whole entry, the tested form may be a part): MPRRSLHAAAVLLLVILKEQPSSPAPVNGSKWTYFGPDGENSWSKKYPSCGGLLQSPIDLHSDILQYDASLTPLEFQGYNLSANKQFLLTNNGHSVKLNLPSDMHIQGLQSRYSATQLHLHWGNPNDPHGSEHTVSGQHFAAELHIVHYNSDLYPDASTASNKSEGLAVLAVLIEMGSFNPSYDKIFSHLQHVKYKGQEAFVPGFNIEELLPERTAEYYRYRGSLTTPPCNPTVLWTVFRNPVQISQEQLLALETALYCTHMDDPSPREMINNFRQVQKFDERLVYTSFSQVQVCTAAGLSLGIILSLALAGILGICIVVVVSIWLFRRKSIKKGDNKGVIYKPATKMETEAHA

Row | Compound | Ki
59 | NS(=O)(=O)c1ccc2c(c1)CCCN2 | 0.0807 µM
60 | CC(F)(Cl)CNS(=O)(=O)c1ccc(N)cc1 (configuration not stated) | 1.52 µM
61 | CC(=O)Nc1ccc(S(=O)(=O)NCC(C)F)cc1 (configuration not stated) | 1.1 µM
62 | CCCNS(=O)(=O)c1ccc(N)cc1 | 1.84 µM
63 | Nc1ccc(S(=O)(=O)NCCC(F)F)cc1 | 1.14 µM
64 | CC(F)(F)CNS(=O)(=O)c1ccc(N)cc1 | 0.0794 µM
65 | CC(C)(F)CNS(=O)(=O)c1ccc(N)cc1 | 0.0397 µM
66 | C=CCNc1ccc(S(N)(=O)=O)cc1 | 0.966 µM
67 | C=C(Cl)CN(CC(=C)Cl)S(=O)(=O)c1ccc(N)cc1 | 0.0798 µM
68 | Nc1ccc(S(=O)(=O)NCCC(F)Cl)cc1 (configuration not stated) | 1.95 µM
69 | C=C(Cl)CNS(=O)(=O)c1ccc(N)cc1 | 0.096 µM
70 | C=C(C)CNS(=O)(=O)c1ccc(N)cc1 | 1.28 µM
71 | CC1CN(C)S(=O)(=O)c2ccc(N)cc21 (configuration not stated) | 0.298 µM
72 | CC(F)CNc1ccc(S(N)(=O)=O)cc1 (configuration not stated) | 0.0739 µM

What follows are compounds tested against Carbonic anhydrase 2 (Homo sapiens, UniProt P00918) (assay: Inhibition of human recombinant carbonic anhydrase 2 preincubated for 15 mins by CO2 hydration stopped-flow assay).

Row | Compound | Ki
73 | NS(=O)(=O)c1ccc2c(c1)CCCN2 | 0.0789 µM
74 | CC(F)(Cl)CNS(=O)(=O)c1ccc(N)cc1 (configuration not stated) | 1.4 µM
75 | CC(=O)Nc1ccc(S(=O)(=O)NCC(C)F)cc1 (configuration not stated) | 4.6 µM
76 | CCCNS(=O)(=O)c1ccc(N)cc1 | 3.46 µM
77 | Nc1ccc(S(=O)(=O)NCCC(F)F)cc1 | 4.23 µM
78 | CC(F)(F)CNS(=O)(=O)c1ccc(N)cc1 | 0.0853 µM
79 | CC(C)(F)CNS(=O)(=O)c1ccc(N)cc1 | 0.075 µM
80 | C=CCNc1ccc(S(N)(=O)=O)cc1 | 2.34 µM
81 | C=C(Cl)CN(CC(=C)Cl)S(=O)(=O)c1ccc(N)cc1 | 5 µM
82 | Nc1ccc(S(=O)(=O)NCCC(F)Cl)cc1 (configuration not stated) | 0.799 µM
83 | C=C(Cl)CNS(=O)(=O)c1ccc(N)cc1 | 5.18 µM
84 | C=C(C)CNS(=O)(=O)c1ccc(N)cc1 | 4.71 µM
85 | CC1CN(C)S(=O)(=O)c2ccc(N)cc21 (configuration not stated) | 0.431 µM
86 | CC(F)CNc1ccc(S(N)(=O)=O)cc1 (configuration not stated) | 0.0576 µM
87 | Cc1ccc(S(=O)(=O)Nc2ccccc2)cc1 | 0.395 µM
